# Measurements taken from patent US7906516B2, “Carbonyl compounds” (Merck Patent GmbH, priority 2003, dated 2011).
# Molecular target: TF/FVIIa (Homo sapiens, UniProt P08709)
# Test: TF/factor VIIa inhibition (TF/FVIIa-IC50)
# Assay type: biochemical
# Chain of TF/FVIIa (P08709 213-466 limits assumed): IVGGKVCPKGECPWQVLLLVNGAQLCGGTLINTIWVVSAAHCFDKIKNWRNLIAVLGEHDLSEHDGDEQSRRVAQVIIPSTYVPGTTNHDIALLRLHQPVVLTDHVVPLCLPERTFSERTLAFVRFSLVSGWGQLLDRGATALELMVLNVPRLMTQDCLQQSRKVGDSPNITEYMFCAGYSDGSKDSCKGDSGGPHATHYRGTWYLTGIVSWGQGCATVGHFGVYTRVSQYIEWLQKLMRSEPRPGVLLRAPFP
# Chain of TF/FVIIa (P08709 61-212 partner limits assumed): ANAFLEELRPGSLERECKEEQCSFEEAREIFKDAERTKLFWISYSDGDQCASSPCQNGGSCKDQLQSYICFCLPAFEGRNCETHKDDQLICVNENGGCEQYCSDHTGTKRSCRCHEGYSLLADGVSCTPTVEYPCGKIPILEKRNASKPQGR
# Chain of TF/FVIIa (P13726 33-295 partner): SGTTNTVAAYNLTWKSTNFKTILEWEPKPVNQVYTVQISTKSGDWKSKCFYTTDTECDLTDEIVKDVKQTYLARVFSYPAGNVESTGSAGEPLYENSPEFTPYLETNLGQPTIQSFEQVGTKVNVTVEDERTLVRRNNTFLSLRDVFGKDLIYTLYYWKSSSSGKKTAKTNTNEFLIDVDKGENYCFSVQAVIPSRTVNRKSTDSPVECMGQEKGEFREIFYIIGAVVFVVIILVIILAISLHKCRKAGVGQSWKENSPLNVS
row,Structure (SMILES),IC50 [nM]
1,"O=C(Nc1ccc(N2CCOCC2=O)cc1)[C@H]1CCCN1C(=O)c1ccc(Cl)s1 [AB1, N-[4-(3-oxomorpholin-4-yl)phenyl]-(R)-1-(5-chlorothiophene-2-carbonyl)-pyrrolidine-2-carboxamide]",3900
2,"O=C(Nc1ccc(N2CCOCC2=O)cc1)[C@H]1CCCN1C(=O)Nc1ccc(Cl)cc1 [Compound A1, 1-N-[(4-chlorophenyl)]-2-N-{[4-(3-oxomorpholin-4-yl)phenyl]}-(R)-pyrrolidine-1,2-dicarboxamide]",23

# Tested on: not given
# Test: not given
row,Structure (SMILES),melting point [°C]
1,CO[C@@H]1C[C@H](C(=O)Nc2ccc(N3CCOCC3=O)cc2)N(C(=O)Nc2ccc(Cl)cc2)C1,133
2,CC(C)C(=O)O[C@@H]1C[C@H](C(=O)Nc2ccc(N3CCOCC3=O)cc2)N(C(=O)Nc2ccc(Cl)cc2)C1,129
3,O=C1C[C@H](C(=O)Nc2ccc(N3CCOCC3=O)cc2)N(C(=O)Nc2ccc(Cl)cc2)C1,154
4,O=C(Nc1ccc(N2CCOCC2=O)cc1)[C@H]1C[C@@H](O)CN1C(=O)/C=C/c1ccc(Cl)s1,151
5,O=C(Nc1ccc(N2CCOCC2=O)cc1)[C@H]1C[C@@H](O)CN1C(=O)Cc1ccc(Cl)cc1,141
6,CCO[C@@H]1C[C@H](C(=O)Nc2ccc(N3CCOCC3=O)c(C)c2)N(C(=O)Nc2ccc(Cl)cc2)C1,117
7,O=C(NC1CCC(N2CCOCC2=O)CC1)[C@H]1C[C@@H](O)CN1C(=O)Nc1ccc(Cl)cc1 (stereo partly shown),245
8,O=C(Nc1ccc(N2CCOCC2=O)cc1)[C@H]1C=CCN1C(=O)Nc1ccc(Cl)cc1,245
9,"O=C(Nc1ccc(N2CCOCC2=O)cc1)[C@H]1CCCN1C(=O)c1ccc(Cl)s1 [AB1, N-[4-(3-oxomorpholin-4-yl)phenyl]-(R)-1-(5-chlorothiophene-2-carbonyl)-pyrrolidine-2-carboxamide]",195
10,"O=C(Nc1ccc(N2CCOCC2=O)cc1)[C@H]1CCCN1C(=O)Nc1ccc(Cl)cc1 [Compound A1, 1-N-[(4-chlorophenyl)]-2-N-{[4-(3-oxomorpholin-4-yl)phenyl]}-(R)-pyrrolidine-1,2-dicarboxamide]",227.6

# Molecular target: FXa (Homo sapiens, UniProt P00742)
# Test: Factor Xa inhibition (FXa-IC50)
# Assay type: biochemical
# Chain of FXa (P00742 235-488 limits assumed): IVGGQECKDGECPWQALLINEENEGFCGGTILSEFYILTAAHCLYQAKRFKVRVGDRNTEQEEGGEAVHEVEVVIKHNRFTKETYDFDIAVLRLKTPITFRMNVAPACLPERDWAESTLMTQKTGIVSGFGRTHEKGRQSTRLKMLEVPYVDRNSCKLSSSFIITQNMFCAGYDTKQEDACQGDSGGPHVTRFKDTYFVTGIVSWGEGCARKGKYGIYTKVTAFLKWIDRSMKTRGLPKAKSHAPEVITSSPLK
# Chain of FXa (P00742 41-179 partner limits assumed): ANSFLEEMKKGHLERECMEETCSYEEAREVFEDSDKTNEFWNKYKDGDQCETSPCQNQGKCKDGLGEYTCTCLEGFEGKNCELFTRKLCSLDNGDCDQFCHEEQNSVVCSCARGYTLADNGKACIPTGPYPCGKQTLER
row,Structure (SMILES),IC50 [nM]
1,"O=C(Nc1ccc(N2CCOCC2=O)cc1)[C@H]1COCN1C(=O)Nc1ccc(Cl)cc1 [Compound A2, 3-N-[(4-chlorophenyl)]-4-N-{[4-(3-oxomorpholin-4-yl)phenyl]}-(R)-oxazolidine-3,4-dicarboxamide]",27
